Values belong to the compound of their own block, whether it stands above or below them.
Biological target: T1, human parathyroid cell Ca2+ receptor (hPCaR) (Homo sapiens, UniProt P41180)
T1 construct: expressed in transfected cells
T1 sequence (P41180 20-1078): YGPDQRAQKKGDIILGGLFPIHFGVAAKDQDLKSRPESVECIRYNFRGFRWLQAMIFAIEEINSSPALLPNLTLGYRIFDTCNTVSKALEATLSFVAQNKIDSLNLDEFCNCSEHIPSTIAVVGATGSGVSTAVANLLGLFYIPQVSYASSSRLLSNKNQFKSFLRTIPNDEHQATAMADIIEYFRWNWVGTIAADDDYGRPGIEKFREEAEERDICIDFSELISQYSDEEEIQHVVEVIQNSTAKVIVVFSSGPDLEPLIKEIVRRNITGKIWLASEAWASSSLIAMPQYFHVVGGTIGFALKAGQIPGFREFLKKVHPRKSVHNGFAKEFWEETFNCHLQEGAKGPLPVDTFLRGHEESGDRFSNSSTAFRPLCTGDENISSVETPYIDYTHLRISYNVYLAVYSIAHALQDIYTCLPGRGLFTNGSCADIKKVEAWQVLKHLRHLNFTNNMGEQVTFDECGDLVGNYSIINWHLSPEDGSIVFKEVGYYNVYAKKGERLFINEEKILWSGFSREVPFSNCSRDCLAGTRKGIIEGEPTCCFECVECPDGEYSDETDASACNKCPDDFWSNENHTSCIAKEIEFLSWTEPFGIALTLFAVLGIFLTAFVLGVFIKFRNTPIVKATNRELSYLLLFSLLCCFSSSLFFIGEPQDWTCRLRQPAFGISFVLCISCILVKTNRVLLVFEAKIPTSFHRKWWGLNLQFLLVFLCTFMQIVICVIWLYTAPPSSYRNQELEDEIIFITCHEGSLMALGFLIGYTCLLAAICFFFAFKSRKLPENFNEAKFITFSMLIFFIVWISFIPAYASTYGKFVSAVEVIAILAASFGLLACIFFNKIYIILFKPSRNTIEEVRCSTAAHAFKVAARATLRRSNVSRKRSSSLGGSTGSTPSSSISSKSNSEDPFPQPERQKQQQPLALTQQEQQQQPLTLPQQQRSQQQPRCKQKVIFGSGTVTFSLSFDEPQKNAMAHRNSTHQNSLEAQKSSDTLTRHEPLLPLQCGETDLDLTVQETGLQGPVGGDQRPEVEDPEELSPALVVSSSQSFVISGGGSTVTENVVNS
Assay: [Ca2+]i fluorescence assay in HEK 293 4.0-7 cells expressing hPCaR
Assay type: cell-based
Settings: buffer with 1 mM CaCl2
Method in brief: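 HEK 293 clone 4.0-7 stably expressing human parathyroid Ca2+ receptor, seeded overnight, then loaded 90 min at room temperature with calcium dye in parathyroid cell buffer (pH 7.45) with 0.5% BSA and 1 mM CaCl2. Fluorescence after compound addition read at ex 485/em 530 nm.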

SMILES: NC(=O)CCN(CCC(c1ccccc1)c1ccccc1)C(=O)Nc1nc2ccccc2s1 [Example 109, 1-(3-amino-3-oxopropyl)-3-(benzo[d]thiazol-2-yl)-1-(3,3-diphenylpropyl)urea]
- EC50: 0.1 to 1 µM

SMILES: O=C(Nc1nc2ccccc2s1)N(CCNCC1CCN(C(=O)OCc2ccccc2)CC1)CCC(c1ccccc1)c1ccccc1 [Example 149, 4-({2-[3-Benzothiazol-2-yl-1-(3,3-diphenyl-propyl)-ureido]-ethylamino}-methyl)piperidine-1-carboxylic acid benzyl ester]
- EC50: 0.1 to 1 µM

SMILES: O=C(CCN(CCC(c1ccccc1)c1ccccc1)C(=O)Nc1nc2ccccc2s1)N1CCOCC1 [Example 103, 3-(benzo[d]thiazol-2-yl)-1-(3,3-diphenylpropyl)-1-(3-morpholino-3-oxopropyl)urea]
- EC50: 0.1 to 1 µM

SMILES: O=C(O)CNCCN(CCC(c1ccccc1)c1ccccc1)C(=O)Nc1nc2ccccc2s1 [Example 161, {2-[3-Benzothiazol-2-yl-1-(3,3-diphenyl-propyl)-ureido]-ethylamino}-acetic acid]
- EC50: 0.1 to 1 µM

SMILES: CCCS(=O)(=O)NCCN(CCC(c1ccccc1)c1ccccc1)C(=O)Nc1nc2ccccc2s1 [Example 168, Propane-1-sulfonic acid {2-[3-benzothiazol-2-yl-1-(3,3-diphenyl-propyl)-ureido]-ethyl}-amide]
- EC50: 1 to 5 µM

SMILES: COC(CNCCN(CCC(c1ccccc1)c1ccccc1)C(=O)Nc1nc2ccccc2s1)OC [Example 153, 3-Benzothiazol-2-yl-1-[2-(2,2-dimethoxy-ethylamino)-ethyl]-1-(3,3-diphenyl-propyl)urea]
- EC50: 0.1 to 1 µM

SMILES: CCOC(=O)CCCN(CCC(c1ccccc1)c1ccccc1)C(=O)Nc1nc2ccccc2s1 [Example 116, ethyl 4-(3-(benzo[d]thiazol-2-yl)-1-(3,3-diphenylpropyl)ureido)butanoate]
- EC50: 0.1 to 1 µM

SMILES: C[C@H]1CNCCN1C(=O)CCN(CCC(c1ccccc1)c1ccccc1)C(=O)Nc1nc2ccccc2s1 [Example 123, (S)-3-(benzo[d]thiazol-2-yl)-1-(3,3-diphenylpropyl)-1-(3-(2-methylpiperazin-1-yl)-3-oxopropyl)urea]
- EC50: 1 to 5 µM

SMILES: CC(C)(C)OC(=O)N1CCC(C(=O)NCCN(CCC(c2ccccc2)c2ccccc2)C(=O)Nc2nc3ccccc3s2)CC1 [Example 165, 4-{2-[3-Benzothiazol-2-yl-1-(3,3-diphenyl-propyl)-ureido]-ethylcarbamoyl}-piperidine-1-carboxylic acid tert-butyl ester]
- EC50: 0.1 to 1 µM

SMILES: C[C@H]1CN(C(=O)CCCN(CCC(c2ccccc2)c2ccccc2)C(=O)Nc2nc(-c3ccccc3)cs2)CCN1 [Example 90, (S)-1-(3,3-diphenylpropyl)-1-(4-(3-methylpiperazin-1-yl)-4-oxobutyl)-3-(4-phenylthiazol-2-yl)urea]
- EC50: 0.1 to 1 µM

SMILES: CN1CCN(C(=O)CCCN(CCC(c2ccccc2)c2ccccc2)C(=O)Nc2nc3ccccc3s2)CC1 [Example 108, 3-(benzo[d]thiazol-2-yl)-1-(3,3-diphenylpropyl)-1-(4-(4-methylpiperazin-1-yl)-4-oxobutyl)urea]
- EC50: 0.1 to 1 µM

SMILES: CS(=O)(=O)Nc1ccc(-c2nc(NC(=O)N(CCC(c3ccccc3)c3ccccc3)CCS(N)(=O)=O)sc2Cl)cc1 [Example 136, 2-[{[(5-chloro-4-{4-[(methylsulfonyl)amino]phenyl}-1,3-thiazol-2-yl)amino]carbonyl}(3,3-diphenylpropyl)amino]ethanesulfonamide]
- EC50: < 0.1 µM

SMILES: CS(=O)(=O)Nc1ccc(-c2nc(NC(=O)N(CCN[C@@H]3CCCNC3)CCC(c3ccccc3)c3ccccc3)sc2Cl)cc1 [Example 140, (R)-3-(5-chloro-4-(4-(methylsulfonamido)phenyl)thiazol-2-yl)-1-(3,3-diphenylpropyl)-1-(2-(piperidin-3-ylamino)ethyl)urea]
- EC50: < 0.1 µM

SMILES: O=C(O)CCCN(CCC(c1ccccc1)c1ccccc1)C(=O)Nc1nc(-c2ccccc2)cs1 [Example 111, 4-(1-(3,3-diphenylpropyl)-3-(4-phenylthiazol-2-yl)ureido)butanoic acid]
- EC50: 0.1 to 1 µM

SMILES: C[C@H]1CNCCN1C(=O)CCCN(CCC(c1ccccc1)c1ccccc1)C(=O)Nc1nc(-c2ccccc2)cs1 [Example 100, (S)-1-(3,3-diphenylpropyl)-1-(4-(2-methylpiperazin-1-yl)-4-oxobutyl)-3-(4-phenylthiazol-2-yl)urea]
- EC50: 0.1 to 1 µM

SMILES: O=C(Nc1nc2ccccc2s1)N(CCNC1CCOCC1)CCC(c1ccccc1)c1ccccc1 [Example 156, 3-Benzothiazol-2-yl-1-(3,3-diphenyl-propyl)-1-[2-(tetrahydro-pyran-4-ylamino)-ethyl]-urea]
- EC50: 1 to 5 µM

SMILES: CCNC(=O)CCCN(CCC(c1ccccc1)c1ccccc1)C(=O)Nc1nc2ccccc2s1 [Example 85, 3-(benzo[d]thiazol-2-yl)-1-(3,3-diphenylpropyl)-1-(4-(ethylamino)-4-oxobutyl)urea]
- EC50: < 0.1 µM

The next lines start with the values.

- EC50: < 0.1 µM
SMILES: CS(=O)(=O)NCCN(CCC(c1ccccc1)c1ccccc1)C(=O)Nc1nc(-c2ccc(NS(C)(=O)=O)cc2)c(Cl)s1 [Example 139, 3-(5-chloro-4-(4-(methylsulfonamido)phenyl)thiazol-2-yl)-1-(3,3-diphenylpropyl)-1-(2-(methylsulfonamido)ethyl)urea]

- EC50: < 0.1 µM
SMILES: O=C(Nc1nc2ccccc2s1)N(CCN[C@@H]1CCCNC1)CCC(c1ccccc1)c1ccccc1 [Example 145, (R)-3-(benzo[d]thiazol-2-yl)-1-(3,3-diphenylpropyl)-1-(2-(piperidin-3-ylamino)ethyl)urea]

- EC50: < 0.1 µM
SMILES: O=C1CC[C@H](NCCN(CCC(c2ccccc2)c2ccccc2)C(=O)Nc2nc(-c3ccccc3)c(Cl)s2)CN1 [Example 142, (S)-3-(5-chloro-4-phenylthiazol-2-yl)-1-(3,3-diphenylpropyl)-1-(2-(6-oxopiperidin-3-ylamino)ethyl)urea]

- EC50: < 0.1 µM
SMILES: NC(=O)CCCN(CCC(c1ccccc1)c1ccccc1)C(=O)Nc1nc(-c2ccccc2)c(Cl)s1 [Example 81, 1-(4-amino-4-oxobutyl)-3-(5-chloro-4-phenylthiazol-2-yl)-1-(3,3-diphenylpropyl)urea]

- EC50: < 0.1 µM
SMILES: CS(=O)(=O)Nc1ccc(-c2csc(NC(=O)N(CCC(N)=O)CCC(c3ccccc3)c3ccccc3)n2)cc1 [Example 77, 1-(3-amino-3-oxopropyl)-1-(3,3-diphenylpropyl)-3-(4-(4-(methylsulfonamido)phenyl)thiazol-2-yl)urea]

- EC50: < 0.1 µM
SMILES: O=C(CCCN(CCC(c1ccccc1)c1ccccc1)C(=O)Nc1nc2ccccc2s1)N[C@H]1CCCNC1 [Example 74, (S)-3-(benzo[d]thiazol-2-yl)-1-(3,3-diphenylpropyl)-1-(4-oxo-4-(piperidin-3-ylamino)butyl)urea]

- EC50: < 0.1 µM
SMILES: CS(=O)(=O)Nc1ccc(-c2csc(NC(=O)N(CCCC(N)=O)CCC(c3ccccc3)c3ccccc3)n2)cc1 [Example 68, 1-(4-amino-4-oxobutyl)-1-(3,3-diphenylpropyl)-3-(4-(4-(methylsulfonamido)phenyl)thiazol-2-yl)urea]

- EC50: < 0.1 µM
SMILES: CS(=O)(=O)Nc1ccc(-c2csc(NC(=O)N(CCCC(=O)N[C@@H]3CCCNC3)CCC(c3ccccc3)c3ccccc3)n2)cc1 [Example 67, (R)-1-(3,3-diphenylpropyl)-3-(4-(4-(methylsulfonamido)phenyl)thiazol-2-yl)-1-(4-oxo-4-(piperidin-3-ylamino)butyl)urea]
